Where no end group is shown, it is not given here.
Assays:
[1] = target: T1, PXY extracellular domain (30–647) (Arabidopsis thaliana, UniProt Q9FII5); experiment: ITC of purified PXY extracellular domain vs. CLE41/44; conditions: binding affinity (range), isolated PXY ectodomain; range joins own value (Fig EV1B) and ref 25
T1 construct: PXY/TDR (30–647); azurocidin signal peptide (N); made in house; host or cells: Spodoptera frugiperda Sf9 insect cells (baculovirus, secreted)
T1 sequence (Q9FII5 30-647): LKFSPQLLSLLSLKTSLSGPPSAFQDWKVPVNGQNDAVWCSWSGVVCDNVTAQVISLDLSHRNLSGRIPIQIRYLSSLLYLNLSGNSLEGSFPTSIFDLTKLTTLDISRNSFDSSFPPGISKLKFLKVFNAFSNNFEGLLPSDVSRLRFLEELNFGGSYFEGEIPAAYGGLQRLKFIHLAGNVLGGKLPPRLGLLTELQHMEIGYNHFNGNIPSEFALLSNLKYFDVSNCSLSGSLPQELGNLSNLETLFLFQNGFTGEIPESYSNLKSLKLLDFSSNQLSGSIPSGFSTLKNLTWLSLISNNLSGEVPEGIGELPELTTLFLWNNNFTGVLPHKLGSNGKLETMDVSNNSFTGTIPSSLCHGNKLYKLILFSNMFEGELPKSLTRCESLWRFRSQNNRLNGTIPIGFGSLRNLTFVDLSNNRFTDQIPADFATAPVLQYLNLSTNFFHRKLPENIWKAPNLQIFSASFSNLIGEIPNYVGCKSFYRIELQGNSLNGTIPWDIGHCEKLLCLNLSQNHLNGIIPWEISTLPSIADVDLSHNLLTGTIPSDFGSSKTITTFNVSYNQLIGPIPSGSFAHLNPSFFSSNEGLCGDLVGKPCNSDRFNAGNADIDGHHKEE

[2] = system: Arabidopsis Col-0 seedlings (primary root); experiment: Root growth assay, wild type (Col-0); format: in vivo, Arabidopsis thaliana; conditions: 50 nM peptide, 9-day-old seedlings, primary root length, n ≥ 12
Protocol: Plant tissue culture, plant transformation, and common molecular biology procedures such as genomic DNA isolation, genotyping, sequencing, and peptide or inhibitor treatments were performed according to standard procedures as previously described 9, 19, 44, 65.
All mutant and transgenic lines were in the Arabidopsis Columbia‐0 (Col‐0) background. The following previously described mutant alleles were used throughout: brx‐2, bam3‐2, brx‐2 bam3, clv2‐1, serk1‐1 and serk1‐3, serk2‐1, serk3‐1, serk4‐1, serk5‐1 9, 47, 59, 66, 67, 68. The crn loss‐of‐function mutant allele (crn‐10) carries a single nucleotide insertion in front of the 7th codon, which leads to a frameshift and three subsequent premature stop codons after amino acid 10 52.

[3] = system: crn seedlings expressing CRN-CITRINE under control of the BAM3 promoter; experiment: Root growth, BAM3::CRN-CITRINE in crn (protophloem-specific CRN); format: in vivo, Arabidopsis thaliana; conditions: 50 nM peptide, 7-day-old seedlings
Excerpt: Figure 3 Protophloem‐specific CRN action in the root meristem • A Expression pattern of BAM3, CLV2, and CRN‐CITRINE fusion proteins (green fluorescence) under control of their native promoters (blue fluorescence: calcofluor white cell wall staining) (confocal microscopy). Asterisks mark developing protophloem sieve element strands. • B, C Expression pattern of CRN‐CITRINE fusion protein under control of the BAM3 promoter in Col‐0 (B) or crn (C) background. Arrowhead in (C) highlights plasma membrane‐localized CRN. • D Representative 7‐day‐old crn seedlings expressing CRN‐CITRINE fusion protein under control of the BAM3 promoter grown on mock or CLE45. • E Primary root length of 7‐day‐old seedlings of indicated genotypes, grown on mock or 50 nM of selected CLE peptides. Differences as compared to ^a: Col‐0 or ^b: crn are not statistically significant unless indicated (Student's t‐test); *P < 0.05; **P < 0.01; ***P < 0.001; mean ± s.e.m. • F Expression of nuclear localized, fluorescent VENUS protein under control of the CVP2 promoter (which specifically marks developing protophloem sieve elements), 24 h after transfer from standard media to 50 nM of selected CLE peptides. Arrowheads indicate the cells closest to the tip in which CVP2 expression was still detectable. […]

Sequence | Kd [1] [nM] | impact on root growth [2] | sensitivity after protophloem-specific CRN expression in crn [3]
HEVPSGPNPISN [CLE41/44] | 10 to 30 |  | 
RKVPRGPDPIHN [CLE26, CLE26: …] |  | significant, reproducible impact on root growth | restored sensitivity
